Results published in US20020115624A1, “Alpha gylcosylceramides for treating bacterial and fungal infections” (priority 2000, published 2002).

Assays:
M. tuberculosis (Erdman) = assay: Intravenous inoculation model of tuberculosis: survival of infected BALB/c mice treated with α-galactosylceramide; assay type: in vivo
[1] = test system: NK, B, CD8+, and CD4+ lymphocytes; settings: cited from earlier work
NKT cells = settings: specificity for the α-linkage; cited from earlier work

| Compound | survival compared to the control group (M. tuberculosis (Erdman); BALB/c mice, 5×10^5 cfu IV, 2 ug IP on days 1, 5 and 9, nine mice per group) | mean survival time (MST) (M. tuberculosis (Erdman); BALB/c mice, 5×10^5 cfu IV, 2 ug IP on days 1, 5 and 9 after infection, vehicle MST 60 days, p<0.0001 by log-rank test) [days] | bacteriological cure (M. tuberculosis (Erdman); preliminary experiments, all of the infected mice died despite treatment) | time to activation of NK, B, CD8+ and CD4+ lymphocytes (induction of CD69, CD80, CD86) ([1]; administration to mice in vivo) [h] | time to detectable increase in serum IFN-γ ([1]; following in vivo treatment of mice) [h] | activation of the immune system ([1]; mice that lack CD1d (CD1d −/−) or lack NKT cells (Jα281−/−)) | activation of NKT cells (NKT cells) |
| --- | --- | --- | --- | --- | --- | --- | --- |
| CCCCCCCCCCCCCCCCCCCCCCCCCC(=O)N[C@@H](CO[C@H]1O[C@H](CO)[C@H](O)[C@H](O)[C@H]1O)[C@H](O)[C@H](O)CCCCCCCCCCCCCC [α-galactosylceramide] | increased survival | 91 | did not result in a bacteriological cure | 3 to 24 | ≤ 18 | does not occur |  |
| β-galactosylceramide |  |  |  |  |  |  | does not activate NKT cells |
